Some results are limits rather than exact numbers.

The target of this experiment is T1, AXL (human catalytic domain) (Homo sapiens, UniProt P30530).
T1 construct: purchased Upstate Ltd. 14-512
T1 sequence (P30530 473-894): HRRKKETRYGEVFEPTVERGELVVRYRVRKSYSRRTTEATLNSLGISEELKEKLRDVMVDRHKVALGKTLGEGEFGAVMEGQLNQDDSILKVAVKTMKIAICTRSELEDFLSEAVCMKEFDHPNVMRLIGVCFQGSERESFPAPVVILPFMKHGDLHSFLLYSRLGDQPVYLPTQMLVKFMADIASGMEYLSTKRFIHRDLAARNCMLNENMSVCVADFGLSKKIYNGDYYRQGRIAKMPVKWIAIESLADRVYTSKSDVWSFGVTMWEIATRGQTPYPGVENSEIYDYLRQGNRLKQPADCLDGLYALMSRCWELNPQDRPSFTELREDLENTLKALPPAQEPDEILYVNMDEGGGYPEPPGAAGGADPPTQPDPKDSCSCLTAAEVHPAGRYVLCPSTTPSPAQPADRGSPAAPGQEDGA
As to the kind of experiment: AXL (human catalytic domain) Enzyme Activity Assay (IMAP fluorescence polarisation). It counts as biochemical. In a few lines: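 IMAP FP readout (Ex485/Em535, after overnight binding) measured inhibition of the human AXL catalytic domain (aa473-894, 15 nM final) acting on 100 nM 5FAM-CSK-tide at 150 μM ATP, equal to KM. Reactions ran 60 min at room temperature in pH 7.0 HEPES buffer; IC50 from 10-point curves.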
Background: In fluorescence polarisation assays a small probe gives low polarisation when free and higher when bound to something large.

Where [1] appears, read: further data set (WW-001 through WW-169, XX-001 through XX-469, YY-001 through YY-016, ZZ-001 through ZZ-003), 150 μM ATP.
Where [2] appears, read: first data set, recombinant AXL isoform 1 aa473-894, 150 μM ATP.

The IC50 is the concentration that gives 50% inhibition. Consider `c1ccc(CCNc2ccc(-c3cccc4nc(Nc5ccc(OCCN6CCCC6)cc5)nn34)cc2)cc1` [XX-265], for which, under setting [1], the IC50 was in the range of 1 to 10 µM.
In the case of `CN(C)C/C=C/c1ccc(Nc2nc3cccc(-c4ccc5c(c4)OCCO5)n3n2)cc1` [XX-082], the IC50 under setting [2] is under 1 µM and the concentration for half-maximal inhibition (IC50) under setting [1] was at most 0.1 µM.
The like results for `COc1ccc(-c2cccc3nc(Nc4ccc(OCCNCc5ccncc5)cc4)nn23)cc1` [XX-032] were, in that order, under 1 µM and at most 0.1 µM.
On to `CC(C)(C)NC(=O)NCc1cccc(-c2cccc3nc(Nc4ccc(OCCN5CCCC5)cc4)nn23)c1` [XX-372], for which the IC50 under setting [1] lay within 0.1 to 1 µM.
Under setting [1], `COc1ccccc1CNc1cccc(-c2cccc3nc(Nc4ccc(OCCN5CCCC5)cc4)nn23)c1` [XX-451] gave an IC50 of 0.1 to 1 µM.
Regarding `c1cc(-c2ccc3c(c2)CCO3)n2nc(Nc3ccc(N4CCNCC4)cc3)nc2c1` [XX-059], the IC50 runs as follows: under setting [2], under 1 µM; under setting [1], 0.1 to 1 µM.
Consider `Clc1ccccc1Cn1cc(-c2cccc3nc(Nc4ccc(OCCN5CCCC5)cc4)nn23)cn1` [XX-354], for which the IC50 under setting [1] is 0.1 to 1 µM.
On the same count and under the same terms, for `Cc1cc(C(=O)Nc2ccc(-c3cccc4nc(Nc5ccc(OCCN6CCCC6)cc5)nn34)cc2)on1` [XX-251] the value was 0.1 to 1 µM.
In the case of `COc1ccc(-c2cccc3nc(Nc4ccc(S(N)(=O)=O)cc4)nn23)cc1` [XX-063], the IC50 under setting [2] lay within 1 to 10 µM and the IC50 under setting [1] was in the range of 1 to 10 µM.
Under setting [1], `CN(C)C(=O)c1ccc(-c2cccc3nc(Nc4ccc(OCCN5CCCC5)cc4)nn23)cc1` [XX-239] returned an IC50 of 1 to 10 µM.
With `Cn1nnnc1SCCn1cc(-c2cccc3nc(Nc4ccc(OCCN5CCCC5)cc4)nn23)cn1` [XX-428], the IC50 under setting [1] lay within 1 to 10 µM.
For the compound `COc1ccc(-c2cccc3nc(Nc4ccc(OCCN5CCCCC5)cc4)nn23)cc1` [XX-019], the IC50 under setting [2] is under 1 µM and the IC50 under setting [1] was at most 0.1 µM.
`CN(C(=O)OC(C)(C)C)c1ccc(-c2cccc3nc(NC(=O)C4CC4)nn23)cc1` [WW-119, {4-[2-(cyclopropanecarbonyl-amino)-[1,2,4]triazolo[1,5-a]pyridin-5-yl]-phenyl}-methyl-carbamic acid tert-butyl ester]: the half-maximal inhibitory concentration (IC50) lay within 1 to 10 µM under setting [2] and 1 to 10 µM under setting [1].
Turning to `COc1ccc(-c2cccc3nc(NC(=O)C4CC4)nn23)cc1OC` [WW-100], the IC50 reads like this: under setting [2], 1 to 10 µM; under setting [1], 1 to 10 µM.
Consider `Cc1ccc(-c2cccc3nc(NC(=O)C4CC4)nn23)cc1` [WW-047], for which the IC50 is under 1 µM under setting [2] and 0.1 to 1 µM under setting [1].
In turn, `CN(C(=O)CN1CCCC1)c1ccc(Nc2nc3cccc(-c4ccc5c(c4)OCCO5)n3n2)cc1` [XX-153] came in with a concentration for half-maximal inhibition (IC50) under setting [1] of at most 0.1 µM.
The same measure, in the same setting: under `CCN(CC)CCOc1ccc(Nc2nc3cccc(-c4ccc(OC)cc4)n3n2)cc1Cl` [XX-417] stands 0.1 to 1 µM; under `Clc1ccc(-c2cccc3nc(Nc4ccc(OCCN5CCCC5)cc4)nn23)cc1Cl` [XX-297], 0.1 to 1 µM; under `Clc1ccc(COc2cccc(-c3cccc4nc(Nc5ccc(OCCN6CCCC6)cc5)nn34)c2)cc1` [XX-336], 1 to 10 µM.
Turning to `c1cc(-c2ccc3occc3c2)n2nc(Nc3ccc(OCCN4CCCCC4)cc3)nc2c1` [XX-050], the concentration for half-maximal inhibition (IC50) was under 1 µM under setting [2] and at most 0.1 µM under setting [1].
For `O=C(Nc1cccc(-c2cccc3nc(Nc4ccc(OCCN5CCCC5)cc4)nn23)c1)c1cccc(Cl)c1` [XX-177], the IC50 under setting [1] lay within 0.1 to 1 µM.
Turning to `CN(C)CCNC(=O)c1cccc(Nc2nc3cccc(-c4ccc5occc5c4)n3n2)c1` [XX-085], the IC50 under setting [2] is under 1 µM and the IC50 under setting [1] is at most 0.1 µM.
Regarding `COc1ccc(CNc2ccc(-c3cccc4nc(Nc5ccc(OCCN6CCCC6)cc5)nn34)cc2)cc1` [XX-266], under setting [1], the IC50 lay within 0.1 to 1 µM.
Compound `Cc1ccc(-c2cccc(-c3cccc4nc(Nc5ccc(OCCN6CCCC6)cc5)nn34)c2)cc1` [XX-465] returned a half-inhibitory concentration (IC50) under setting [1] of 1 to 10 µM.
Take `CC(C)(C)CNc1cccc2nc(NC(=O)C3CC3)nn12` [WW-080]: the IC50 by setting is: under setting [2], 1 to 10 µM; under setting [1], 1 to 10 µM.
For the compound `NC(=O)COc1cccc(-c2cccc3nc(Nc4ccc(OCCN5CCCC5)cc4)nn23)c1` [XX-404], the IC50 under setting [1] lay within 1 to 10 µM.
Same read-out and setting: under `COc1ccc(-c2nccc3nc(NC(=O)C4CC4)nn23)cc1` [ZZ-003] stands 1 to 10 µM.
For `C=Cn1cc(-c2cccc3nc(Nc4ccc(OCCN5CCCC5)cc4)nn23)cn1` [XX-328], the IC50 under setting [1] is 0.1 to 1 µM.
Still for that read-out and setting: under `O=C(Cn1cc(-c2cccc3nc(Nc4ccc(OCCN5CCCC5)cc4)nn23)cn1)NCCO` [XX-436] stands 0.1 to 1 µM.
Consider `COc1ccc(-c2cccc3nc(NC(C)=O)nn23)cc1` [WW-039], for which the IC50 runs as follows: under setting [2], 1 to 10 µM; under setting [1], 1 to 10 µM.
Under setting [1], `O=C(NCc1cccc(-c2cccc3nc(Nc4ccc(OCCN5CCCC5)cc4)nn23)c1)Nc1cccc(Cl)c1` [XX-348, 1-(3-Chloro-phenyl)-3-(3-{2-[4-(2-pyrrolidin-1-yl-ethoxy)-phenylamino]-[1,2,4]triazolo[1,5-a]pyridin-5-yl}-benzyl)-urea] returned an IC50 of 1 to 10 µM.
Under setting [1], `c1ccc2sc(-c3cccc4nc(Nc5ccc(OCCN6CCCC6)cc5)nn34)cc2c1` [XX-294] showed an IC50 of 0.1 to 1 µM.
Same read-out and setting: for `Oc1cccc(-c2cccc3nc(Nc4ccc(OCCN5CCCC5)cc4)nn23)c1` [XX-256, 3-{2-[4-(2-Pyrrolidin-1-yl-ethoxy)-phenylamino]-[1,2,4]triazolo[1,5-a]pyridin-5-yl}-phenol] the value was 0.1 to 1 µM.
Same read-out and setting: for `c1cncc(CNc2cccc(-c3cccc4nc(Nc5ccc(OCCN6CCCC6)cc5)nn34)c2)c1` [XX-442] the value was 0.1 to 1 µM; for `Clc1cccc(CNc2ccc(-c3cccc4nc(Nc5ccc(OCCN6CCCC6)cc5)nn34)cc2)c1` [XX-223, {5-[4-(3-Chloro-benzylamino)-phenyl]-[1,2,4]triazolo[1,5-a]pyridin-2-yl}-[4-(2-pyrrolidin-1-yl-ethoxy)-phenyl]-amine], 1 to 10 µM; for `c1ccc(-c2cccc(-c3cccc4nc(Nc5ccc(OCCN6CCCC6)cc5)nn34)c2)cc1` [XX-164, (5-Biphenyl-3-yl-[1,2,4]triazolo[1,5-a]pyridin-2-yl)-[4-(2-pyrrolidin-1-yl-ethoxy)-phenyl]-amine], 0.1 to 1 µM.
On to `c1cc(-c2ccc3nonc3c2)n2nc(Nc3ccc(OCCN4CCCC4)cc3)nc2c1` [XX-208], for which the IC50 under setting [1] was in the range of 0.1 to 1 µM.
Turning to `O=C(Nc1nc2cccc(-c3cc[nH]c3)n2n1)C1CC1` [WW-149], the IC50 under setting [2] was in the range of 1 to 10 µM and the IC50 under setting [1] was 1 to 10 µM.
For `Cc1ccc(-c2cccc3nc(NC(=O)C4CC4)nn23)cn1` [WW-084], the IC50 by setting is: under setting [2], 1 to 10 µM; under setting [1], 1 to 10 µM.
The compound `FC(F)(F)c1cccc(COc2cccc(-c3cccc4nc(Nc5ccc(OCCN6CCCC6)cc5)nn34)c2)c1` [XX-401] displayed an IC50 under setting [1] of 1 to 10 µM.
The same measure, in the same setting: for `COc1ccc(-c2cccc3nc(Nc4cccc(C(=O)NCCO)c4)nn23)cc1` [XX-042] the value was 0.1 to 1 µM.
Still for that read-out and setting: under `COc1cc(Nc2nc3cccc(-c4ccc5c(c4)OCCN5C)n3n2)ccc1OCCN1CCCC1` [XX-095] stands 0.1 to 1 µM; under `O=C(Cn1cc(-c2cccc3nc(Nc4ccc(OCCN5CCCC5)cc4)nn23)cn1)Nc1ccccc1` [XX-432], 0.1 to 1 µM.
The same measure, in the same setting: under `O=C(Nc1ccccc1)Nc1cccc(-c2cccc3nc(Nc4ccc(OCCN5CCCC5)cc4)nn23)c1` [XX-174, 1-Phenyl-3-(3-{2-[4-(2-pyrrolidin-1-yl-ethoxy)-phenylamino]-[1,2,4]triazolo[1,5-a]pyridin-5-yl}-phenyl)-urea] stands 0.1 to 1 µM.

(Values after US8431596B2 (Cancer Research Technology Limited, priority 2007, dated 2013).)
